# Measurements: PMC5457276, “Influence of Amphibian Antimicrobial Peptides and Short Lipopeptides on Bacterial Biofilms Formed on Contact Lenses” (Materials, 2016)
# Where two headings read alike, the source gives them in different places. Where a SMILES comes first, the peptide text is derived from it. Where no end group is shown, it is not given here. The star is where a group is joined. Palmitoyl = CCCCCCCCCCCCCCCC(=O)*
# Key:
# Assay type in all cases: cell-based
# [1] = tested on: Pseudomonas aeruginosa ATCC 9027 biofilm on contact lenses; settings: for Minimum biofilm eradication concentration (reduction of resazurin ≤10% ± 0.5%): P. aeruginosa, triplicate; for Concentration eliminating P. aeruginosa from the lens surface (MBEC): ATCC 9027, 24 h
# Description: (§1) All selected strains were obtained from the Polish Collection of Microorganisms (Polish Academy of Science, Wroclaw, Poland). Four Gram-positive and three Gram-negative strains linked with CL-related infections lenses were tested (Table 5). The microorganisms were cultured in a Mueller Hinton Broth II (MHB, Biocorp, Warsaw, Poland) overnight, at 37 °C.
# (§2) The CL and CL solutions used are commercially available. One-day CL (1-Day Acuvue Moist) containing Etafilcon A were obtained from Johnson and Johnson Vision Care (Jacksonsville, FL, USA). Four popular CL solutions were also tested (Table 6).
# (§3) Biofilms of strains related with ocular infections were cultured on CL placed in polystyrene 24-well plates (Orange Scientific, Braine-l’Alleud, Belgium). Biomaterials were incubated at 37 °C in bacterial suspension in the Mueller Hinton Broth II (Biocorp, Warsaw, Poland) at initial inoculums of ca. 5 × 10^5 CFU/mL. After 24 h of incubation all of the CL were rinsed three times with a sterile phosphate buffer (AppliChem, Darmstadt, Germany). The lenses were then transferred into new wells with fresh MHB II. One-day biofilms were exposed to a pre-determined range of peptides concentration. […] Anti-biofilm activity of selected peptides was visualized using a cell-viability reagent, Resazurin (Sigma Aldrich, St. Louis, MO, USA). Upon contact with living cells the dye is metabolized by bacterial dehydrogenases resulting in the reduction of the blue resazurin to a pink resorufin. Positive controls contained CL immersed in bacterial suspensions without antimicrobials, while CL in a sterile culture medium served as negative controls. The minimum biofilm eradication concentration (MBEC) was read after a one-hour incubation with Resazurin (final concentration per sample = 0.005%) MBEC was determined as the lowest concentration at which the reduction of resazurin was lower or equal (10% ± 0.5%) as compared to positive (100%) and negative (0%) controls. All experiments were performed in triplicate.
# [2] = tested on: Escherichia coli ATCC 25922 biofilm on contact lenses; settings: for Minimum biofilm eradication concentration (reduction of resazurin ≤10% ± 0.5%): E. coli, triplicate
# Description: as §1, §2, §3
# [3] = tested on: Staphylococcus aureus ATCC 25923 biofilm on contact lenses; assay: Biofilm assay on contact lenses (MBEC, resazurin); settings: S. aureus, triplicate
# Description: as §1, §2, §3
# [4] = tested on: Staphylococcus epidermidis ATCC 14990 biofilm on contact lenses; assay: Biofilm assay on contact lenses (MBEC, resazurin); settings: S. epidermidis, triplicate
# Description: as §1, §2, §3
# [5] = tested on: Streptococcus pyogenes PCM 465 biofilm on contact lenses; assay: Biofilm assay on contact lenses (MBEC, resazurin); settings: S. pyogenes, triplicate
# Description: as §1, §2, §3
# [6] = tested on: Streptococcus pneumoniae ATCC 49619 biofilm on contact lenses; assay: Biofilm assay on contact lenses (MBEC, resazurin); settings: S. pneumoniae, triplicate
# Description: as §1, §2, §3
# [7] = tested on: Pseudomonas aeruginosa ATCC 9027; settings: P. aeruginosa; same MIC in μM (in brackets); broth microdilution, MHB II, overnight at 37 °C, triplicate
# Description: as §1
# (§4) Peptide susceptibility tests on the reference bacterial strains were performed with the following procedures recommended by the Clinical and Laboratory Standard Institute (CLSI). The activity of five peptides was tested on the Mueller Hinton Broth II (Biocorp, Warsaw, Poland) using broth microdilution method on polystyrene 96-well plates (Kartell, Noviglio, Italy). […] The plates were incubated overnight at 37 °C. MIC was assumed as the lowest concentration at which bacterial growth was no longer visible. All experiments were performed in triplicate.
# [8] = tested on: Staphylococcus epidermidis ATCC 14990; settings: S. epidermidis; same MIC in μM (in brackets); broth microdilution, MHB II, overnight at 37 °C, triplicate
# Description: as §1, §4
# [9] = tested on: Escherichia coli ATCC 25922; settings: E. coli; same MIC in μM (in brackets); broth microdilution, MHB II, overnight at 37 °C, triplicate
# Description: as §1, §4
# [10] = tested on: Streptococcus pyogenes PCM 465; settings: S. pyogenes; same MIC in μM (in brackets); broth microdilution, MHB II, overnight at 37 °C, triplicate
# Description: as §1, §4
# [11] = tested on: Streptococcus pneumoniae ATCC 49619; settings: S. pneumoniae; same MIC in μM (in brackets); broth microdilution, MHB II, overnight at 37 °C, triplicate
# Description: as §1, §4
# [12] = tested on: Staphylococcus aureus ATCC 25923; settings: S. aureus; same MIC in μM (in brackets); broth microdilution, MHB II, overnight at 37 °C, triplicate
# Description: as §1, §4
# [13] = tested on: planktonic bacteria, all tested strains; assay: Minimum inhibitory concentration, summary over all tested strains; settings: summary of Table 1
# Description: as §1, §4
# [14] = tested on: biofilms formed by Gram-positive bacteria on contact lenses; assay: Biofilm assay on contact lenses (MBEC), summary over Gram-positive strains; settings: both temperatures (25 °C and 37 °C)
# Description: as §1, §2, §3
# [15] = 25 °C, one-day biofilm on contact lens (Etafilcon A), 24 h exposure in MHB II, resazurin read-out
# [16] = 25 °C, same MBEC in μM (in brackets), biofilm on contact lens, 24 h exposure
# [17] = 37 °C, one-day biofilm on contact lens (Etafilcon A), 24 h exposure in MHB II, resazurin read-out
# [18] = 37 °C, same MBEC in μM (in brackets), biofilm on contact lens, 24 h exposure
compound,measurement,setting,value
CCCCCCCCCCCCCCCC(=O)N[C@@H](CCCNC(=N)N)C(=O)N[C@@H](CCCNC(=N)N)C(N)=O [Palm-RR-NH2] (Palmitoyl-Arg-Arg-NH2),Minimum biofilm eradication concentration (reduction of resazurin ≤10% ± 0.5%),[1]; [15],>512 µg/mL
same,Minimum biofilm eradication concentration (reduction of resazurin ≤10% ± 0.5%),[1]; [16],(>644.1) μM
same,Minimum biofilm eradication concentration (reduction of resazurin ≤10% ± 0.5%),[1]; [17],>512 µg/mL
same,Minimum biofilm eradication concentration (reduction of resazurin ≤10% ± 0.5%),[1]; [18],(>644.1) μM
same,Minimum biofilm eradication concentration (reduction of resazurin ≤10% ± 0.5%),[2]; [15],256 µg/mL
same,Minimum biofilm eradication concentration (reduction of resazurin ≤10% ± 0.5%),[2]; [16],(322.1) μM
same,Minimum biofilm eradication concentration (reduction of resazurin ≤10% ± 0.5%),[2]; [17],512 µg/mL
same,Minimum biofilm eradication concentration (reduction of resazurin ≤10% ± 0.5%),[2]; [18],(644.1) μM
same,Minimum biofilm eradication concentration (reduction of resazurin ≤10% ± 0.5%),[3]; [15],128 µg/mL
same,Minimum biofilm eradication concentration (reduction of resazurin ≤10% ± 0.5%),[3]; [16],(161.0) μM
same,Minimum biofilm eradication concentration (reduction of resazurin ≤10% ± 0.5%),[3]; [17],256 µg/mL
same,Minimum biofilm eradication concentration (reduction of resazurin ≤10% ± 0.5%),[3]; [18],(322.1) μM
same,Minimum biofilm eradication concentration (reduction of resazurin ≤10% ± 0.5%),[4]; [15],64 µg/mL
same,Minimum biofilm eradication concentration (reduction of resazurin ≤10% ± 0.5%),[4]; [16],(80.5) μM
same,Minimum biofilm eradication concentration (reduction of resazurin ≤10% ± 0.5%),[4]; [17],32 µg/mL
same,Minimum biofilm eradication concentration (reduction of resazurin ≤10% ± 0.5%),[4]; [18],(40.3) μM
same,Minimum biofilm eradication concentration (reduction of resazurin ≤10% ± 0.5%),[5]; [15],128 µg/mL
same,Minimum biofilm eradication concentration (reduction of resazurin ≤10% ± 0.5%),[5]; [16],(161.0) μM
same,Minimum biofilm eradication concentration (reduction of resazurin ≤10% ± 0.5%),[5]; [17],>512 µg/mL
same,Minimum biofilm eradication concentration (reduction of resazurin ≤10% ± 0.5%),[5]; [18],(>644.1) μM
same,Minimum biofilm eradication concentration (reduction of resazurin ≤10% ± 0.5%),[6]; [15],64 µg/mL
same,Minimum biofilm eradication concentration (reduction of resazurin ≤10% ± 0.5%),[6]; [16],(80.5) μM
same,Minimum biofilm eradication concentration (reduction of resazurin ≤10% ± 0.5%),[6]; [17],32 µg/mL
same,Minimum biofilm eradication concentration (reduction of resazurin ≤10% ± 0.5%),[6]; [18],(40.3) μM
same,Minimum inhibitory concentration,[7],(40.3) μM
same,Minimum inhibitory concentration,[8],(5.0) μM
same,Minimum inhibitory concentration,[9],(20.1) μM
same,Minimum inhibitory concentration,[10],(20.1) μM
same,Minimum inhibitory concentration,[11],(5.0) μM
same,Minimum inhibitory concentration,[12],(10.1) μM
"FLPLIGRVLSGIL-NH2 [Temporin A, reference compound]",Concentration eliminating P. aeruginosa from the lens surface (MBEC),[1],512 µg/mL
GIGKFLKKAKKFGKAFVKILKK-NH2 [Pexiganan],"Concentrations inhibiting bacterial growth (MIC), range over all tested strains",[13],1 to 8 µg/mL
"GLFDVIKKVASVIGGL-NH2 [Citropin 1.1, reference compound]","MBEC values, range over Gram-positive strains",[14],16 to 64 µg/mL
same,Concentration eliminating P. aeruginosa from the lens surface (MBEC),[1],512 µg/mL
same,Concentration eradicating E. coli biofilms (MBEC),"[2]; ATCC 25922, 24 h",128 to 256 µg/mL
